Data set [1] has as its system Staphylococcus aureus. Put plainly: In vivo antibacterial activity against Staphylococcus aureus ATCC 43300 in septicemia mouse model assessed as reduction in bacterial load in spleen at 10 mg/kg, administered every 12 hrs for 3 days. More on the design: scale not given: the % may be the effect or the level left. The data set is classed as functional.
Data set [2] deals with Escherichia coli. In words: Anti-biofilm activity in Escherichia coli ATCC 25922 assessed as inhibition of biofilm formation at 16 ug/ml. The data set is classed as functional.
For data set [3], the system named is Escherichia coli. In words: Antibacterial activity against Escherichia coli ATCC 25922. Format: functional.
The test system of data set [4] is Staphylococcus aureus. Put plainly: In vivo antibacterial activity against Staphylococcus aureus ATCC 43300 in septicemia mouse model assessed as reduction in bacterial load in kidney at 10 mg/kg, administered every 12 hrs for 3 days. The data set is classed as functional. Further details: scale not given: the % may be the effect or the level left.
Data set [5] is described as follows: Hemolytic activity in sheep RBC. The data set is classed as toxicity, cell-based, Ovis aries, Erythrocyte. To be noted: sheep red blood cells (erythrocytes).
A short description of data set [6]: Toxicity in septicemia mouse model infected with Staphylococcus aureus ATCC 43300 assessed as effect on kidney at 5 to 10 mg/kg, administered every 12 hrs for 3 days measured by histopathological analysis. The data set is classed as organism-based. As to conditions: in vivo, dose 5-10 mg/kg.
Data set [7] relates to Escherichia coli. In words: Anti-biofilm activity in Escherichia coli ATCC 25922 assessed as disruption rate of biofilm at 64 ug/ml measured by crystal violet staining method. The data set is classed as functional. As to conditions: dose 64 µg/ml.
Data set [8] relates to Staphylococcus aureus. Put plainly: Antibacterial activity against Staphylococcus aureus ATCC 43300 assessed as bacterial killing at 8XMIC incubated for 3 hrs and measured by time-kill kinetic study. The data set is classed as functional.
Data set [9] deals with Cell membrane. Put plainly: Induction of outer membrane permeabilization to NPN in Escherichia coli ATCC 25922 cells assessed as increase in fluorescence intensity at 4 to 32 ug/ml by NPN-probe based fluorescence spectrophotometric analysis. To be noted: dose 4-32 µg/ml. The data set is classed as subcellular.
Data set [10] in a line: Toxicity in septicemia mouse model infected with Staphylococcus aureus ATCC 43300 assessed as effect on spleen at 5 to 10 mg/kg, administered every 12 hrs for 3 days measured by histopathological analysis. The data set is classed as organism-based. To be noted: in vivo, dose 5-10 mg/kg.
For data set [11], the system named is Escherichia coli. Put plainly: Anti-biofilm activity in Escherichia coli ATCC 25922 assessed as disruption rate of biofilm at 4 ug/ml measured by crystal violet staining method. Format: functional. To be noted: dose 4 µg/ml.
Data set [12] has as its system Staphylococcus aureus. Put plainly: Anti-biofilm activity in Staphylococcus aureus ATCC 43300 assessed as disruption rate of biofilm at 4 ug/ml measured by crystal violet staining method. Format: functional. As to conditions: dose 4 µg/ml.
The subject of data set [13] is Staphylococcus aureus. In words: Antibacterial activity against Staphylococcus aureus ATCC 43300. Format: functional.
A short description of data set [14]: Toxicity in septicemia mouse model infected with Staphylococcus aureus ATCC 43300 assessed as effect on liver at 5 to 10 mg/kg, administered every 12 hrs for 3 days measured by histopathological analysis. Format: organism-based. To be noted: in vivo, dose 5-10 mg/kg.
The subject of data set [15] is Cell membrane. In words: Induction of cell membrane disruption in Escherichia coli ATCC 25922 assessed as increase in fluorescence intensity at 8 times MIC measured after 2 hrs by DAPI staining based fluorescence microscopic analysis.
Data set [16] deals with Staphylococcus aureus. Put plainly: Antibacterial activity against Staphylococcus aureus ATCC 43300 assessed as resistance development by measuring fold increase in MIC. The data set is classed as functional.
Data set [17] concerns Escherichia coli. In words: Anti-biofilm activity in Escherichia coli ATCC 25922 assessed as inhibition of biofilm formation at 8 ug/ml. Format: functional.
Data set [18] concerns Cell membrane. Put plainly: Induction of inner membrane permeabilization in Escherichia coli ATCC 25922 assessed as increase in PI uptake by measuring increase in fluorescence intensity at 4 to 32 ug/ml by propidium iodide staining based fluorescence analysis. Format: subcellular. To be noted: dose 4-32 µg/ml.
The subject of data set [19] is Staphylococcus aureus. In words: Antibacterial activity against Staphylococcus aureus ATCC 43300 assessed as bacterial killing at 4 x MIC incubated for 9 hrs and measured by time-kill kinetic study. The data set is classed as functional.
Data set [20] has as its system Staphylococcus aureus. In words: Anti-biofilm activity in Staphylococcus aureus ATCC 43300 assessed as inhibition of biofilm formation at 0.5 ug/ml. The data set is classed as functional.
Data set [21] deals with Escherichia coli. In words: Anti-biofilm activity in Escherichia coli ATCC 25922 assessed as disruption rate of biofilm at 32 ug/ml measured by crystal violet staining method. The data set is classed as functional. To be noted: dose 32 µg/ml.

The source made the active and inactive calls. The rule behind the calls is not given here.

In the case of `C=CCc1ccc(OCCC[N+](C)(C)CCCCCC)c(-c2ccc(OCCC[N+](C)(C)CCCCCC)c(CC=C)c2)c1.[Br-].[Br-]`, the Activity is 99.3% in data set [1]; 98.7% in [4]; “Non-Toxic” in data set [6]; 65.6% in data set [7]; 100% in data set [8]; “Non-Toxic” in [10]. Further, the Activity is 27.99% in data set [11]; 17.61% in data set [12]; “Non-Toxic” in [14]; “>=99%” in data set [19]; 57.36% in data set [21]. Also, the inhibition at 16 µg/mL in [2] stood at 65.4%. The MIC in [3] came to 4 µg/mL; in data set [13] it was 1 µg/mL. Moreover, the HC50 in data set [5] was 410 µg/mL. Also, the result in [9], in [15] and in data set [18] was Active. For the same compound, the “fold change (FC)” value in data set [16] is given as less than 4. In data set [17], the inhibition at 8 µg/mL stood at 49.3%. For the same compound, in [20], the inhibition at 0.5 µg/mL amounted to 9.72%.

Broadly, the inhibition is the change of the read-out against control, counted positive when it falls. A word on the MIC: it is the lowest concentration found to suppress growth. What is called HC50 is the concentration that lyses half of the red blood cells.

The record behind these values is ChEMBL document CHEMBL5113489, “Design, synthesis, and biological evaluation of membrane-active honokiol derivatives as potent antibacterial agents” (Eur J Med Chem, 2022).
